Laboratory results: patent US9487570B2, “Glucagon like peptide analogs, composition, and method of use” (BETTA PHARMACEUTICALS CO., LTD, priority 2010, dated 2016)

Experiments:
[1] = from U.S. Pat. No. 5,118,666; cited from earlier work
DPP-IV = DPP-IV (Homo sapiens, UniProt P27487); assay: Stability to DPP-IV in vitro; conditions: isolated DPP-IV enzyme, pH 7.4
Experimental: DPP-IV (5 mU, 900 μL) was added, and the solutions were incubated at 37 ° C. At the indicated time points, 100 μL was removed from the reaction mixture, and reactions were terminated by the addition of 5 μL of 10% (v/v) TFA. Each sample was analyzed by MALDI-TOF MS and RP-HPLC as described.

[2] = system: cloned human GLP-1 receptor; assay: cAMP formation in a cell line expressing the cloned human GLP-1 receptor; conditions: 2 h at 37 °C, cAMP by scintillation proximity assay; read-out: Cell based cAMP ED50

DPP-IV, sequence (P27487 whole entry, species assumed): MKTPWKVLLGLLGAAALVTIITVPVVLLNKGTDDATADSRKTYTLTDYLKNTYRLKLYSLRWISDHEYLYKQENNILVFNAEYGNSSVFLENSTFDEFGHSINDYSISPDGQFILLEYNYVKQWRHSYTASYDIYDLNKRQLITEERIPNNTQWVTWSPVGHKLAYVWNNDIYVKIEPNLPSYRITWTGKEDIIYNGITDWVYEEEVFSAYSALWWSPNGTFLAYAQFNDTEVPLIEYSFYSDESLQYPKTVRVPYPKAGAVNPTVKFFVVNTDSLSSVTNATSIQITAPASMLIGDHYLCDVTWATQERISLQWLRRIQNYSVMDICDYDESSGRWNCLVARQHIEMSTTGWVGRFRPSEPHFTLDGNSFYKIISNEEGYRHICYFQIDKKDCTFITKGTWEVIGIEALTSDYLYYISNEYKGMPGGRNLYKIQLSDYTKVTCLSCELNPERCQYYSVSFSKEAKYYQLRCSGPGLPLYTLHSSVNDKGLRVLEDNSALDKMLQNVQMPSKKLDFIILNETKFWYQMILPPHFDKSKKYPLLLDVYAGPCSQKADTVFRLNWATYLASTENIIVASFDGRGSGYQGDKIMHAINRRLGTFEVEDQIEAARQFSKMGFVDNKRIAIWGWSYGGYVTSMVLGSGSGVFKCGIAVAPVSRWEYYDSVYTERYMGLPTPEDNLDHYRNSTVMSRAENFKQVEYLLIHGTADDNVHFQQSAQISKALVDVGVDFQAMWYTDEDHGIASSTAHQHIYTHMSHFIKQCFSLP

Compound	biological half-life [1]	remaining at 1 h, 0.5 nmol/L (DPP-IV)	remaining at 24 h, 0.5 nmol/L (DPP-IV)	EC50 [2]
GLP-1(7-37)OH	3 to 5 minutes			
CCCCCCCCCCCCCCCC(=O)N[C@@H](CCC(=O)NCCCC[C@H](NC(=O)[C@H](C)NC(=O)[C@H](C)NC(=O)[C@H](CCC(N)=O)NC(=O)CNC(=O)[C@H](CCC(=O)O)NC(=O)[C@H](CC(C)C)NC(=O)[C@H](Cc1ccc(O)cc1)NC(=O)[C@H](CO)NC(=O)[C@H](CO)NC(=O)[C@@H](NC(=O)[C@H](CC(=O)O)NC(=O)[C@H](CO)NC(=O)[C@@H](NC(=O)[C@H](Cc1ccccc1)NC(=O)[C@@H](NC(=O)CNC(=O)[C@H](CCC(=O)O)N[C@@H]([C@H](C)NC(=O)[C@@H](N)Cc1c[nH]cn1)C(F)(F)F)[C@@H](C)O)[C@@H](C)O)C(C)C)C(=O)N[C@@H](CCC(=O)O)C(=O)N[C@@H](Cc1ccccc1)C(=O)N[C@H](C(=O)N[C@@H](C)C(=O)N[C@@H](Cc1c[nH]c2ccccc12)C(=O)N[C@@H](CC(C)C)C(=O)N[C@H](C(=O)N[C@@H](CCCNC(=N)N)C(=O)NCC(=O)N[C@@H](CCCNC(=N)N)C(=O)NCC(=O)O)C(C)C)[C@@H](C)CC)C(=O)O [N-ε^26-[γ-L-glutamyl(N-α-hexadecanoyl)]-[Q-linker-d8,Arg34]GLP-1-(7-37)-peptide]		98%	98%	
CCCCCCCCCCCCCCCC(=O)N[C@@H](CCC(=O)NCCCC[C@H](NC(=O)[C@H](C)NC(=O)[C@H](C)NC(=O)[C@H](CCC(N)=O)NC(=O)CNC(=O)[C@H](CCC(=O)O)NC(=O)[C@H](CC(C)C)NC(=O)[C@H](Cc1ccc(O)cc1)NC(=O)[C@H](CO)NC(=O)[C@H](CO)NC(=O)[C@@H](NC(=O)[C@H](CC(=O)O)NC(=O)[C@H](CO)NC(=O)[C@@H](NC(=O)[C@H](Cc1ccccc1)NC(=O)[C@@H](NC(=O)CNC(=O)[C@@H](/C=C/[C@H](C)NC(=O)[C@@H](N)Cc1c[nH]cn1)CCC(=O)O)[C@@H](C)O)[C@@H](C)O)C(C)C)C(=O)N[C@@H](CCC(=O)O)C(=O)N[C@@H](Cc1ccccc1)C(=O)N[C@H](C(=O)N[C@@H](C)C(=O)N[C@@H](Cc1c[nH]c2ccccc12)C(=O)N[C@@H](CC(C)C)C(=O)N[C@H](C(=O)N[C@@H](CCCNC(=N)N)C(=O)NCC(=O)N[C@@H](CCCNC(=N)N)C(=O)NCC(=O)O)C(C)C)[C@@H](C)CC)C(=O)O [N-ε^26-[γ-L-glutamyl(N-α-hexadecanoyl)]-[Q-linker-a8-9,Arg34]GLP-1-(7-37)-peptide]		98%	98%	
CC[C@H](C)[C@H](NC(=O)[C@H](Cc1ccccc1)NC(=O)[C@H](CCC(=O)O)NC(=O)[C@H](CCCCN)NC(=O)[C@H](C)NC(=O)[C@H](C)NC(=O)[C@H](CCC(N)=O)NC(=O)CNC(=O)[C@H](CCC(=O)O)NC(=O)[C@H](CC(C)C)NC(=O)[C@H](Cc1ccc(O)cc1)NC(=O)[C@H](CO)NC(=O)[C@H](CO)NC(=O)[C@@H](NC(=O)[C@H](CC(=O)O)NC(=O)[C@H](CO)NC(=O)[C@@H](NC(=O)[C@H](Cc1ccccc1)NC(=O)[C@@H](NC(=O)CNC(=O)[C@H](CCC(=O)O)NC(=O)[C@H](C)NC(=O)[C@@H](N)Cc1c[nH]cn1)[C@@H](C)O)[C@@H](C)O)C(C)C)C(=O)N[C@@H](C)C(=O)N[C@@H](Cc1c[nH]c2ccccc12)C(=O)N[C@@H](CC(C)C)C(=O)N[C@H](C(=O)N[C@@H](CCCCN)C(=O)NCC(=O)N[C@@H](CCCNC(=N)N)C(N)=O)C(C)C [GLP-1, reference compound]				0.06 nM
